In patent publication US12514851B2, “Use of 2,3,5-substituted thiophene compound for preventing, ameliorating, or treating ovarian cancer” (PHAROS IBIO CO., LTD, priority 2020, dated 2026) one finds IC50 and selective inhibitory activity data, which are given here for six compounds.

Common to all, as to format: cell-based
Assay [1] concerns CAOV3 ovarian cancer cell line. Kind of assay: Inhibitory activity against ovarian cancer cell lines, agents alone (Celltiter glo cell viability). A general note: ATP-based viability assays read luminescence as a measure of living cells.
Protocol: (§5) In 100-mm culture dishes (SPL) at 37° C. under 5% CO2, the CAOV3 ovarian cancer cell line was cultured using DMEM (Dulbeco's Modified Eagle Medium), and the OVCAR3, SK-OV-3 and SW626 ovarian cancer cell lines were cultured using RPMI1640 medium. Thereafter, each cell line was diluted to 3,000 cells/80 μl using PBS (phosphate-buffered saline) (Biosesang).
(§6) After incubation, the cells were counted using a Celltiter glo assay kit (Promega), and cell viability was measured by expressing the cell count as a percentage relative to that of a control group not treated with PHI-101 or the anticancer agent.
Assay [2] deals with OVCAR3 ovarian cancer cell line. The assay is described as above.
Protocol: as §5, §6
Assay [3] relates to SW626 ovarian cancer cell line. The assay is described as above.
Protocol: as §5, §6
In assay [4] the test system is SK-OV-3 ovarian cancer cell line. The description is as above. The settings on record: SK-OV3.
Protocol: as §5, §6
Assay [5] concerns OVCAR3 ovarian cancer cell line. Kind of assay: Synergistic effect of PHI-101 and olaparib (Celltiter glo viability, Combination Index by CalcuSyn). Conditions: Homo sapiens, OVCAR-3, Table 7, combination index experiment, 72 hours. How it is done:
(§1) In order to establish the concentrations of PHI-101 and olaparib which are in an integer ratio in the combination index experiment, based on the IC50 value of olaparib relative to the relatively low IC50 value (1×) of PHI-101, the integer ratio between PHI-101 and olaparib was obtained as shown in Table 4 below.
(§2) Each prepared 10× solution was serially diluted at 1:2 in each of six E-tubes, each containing 150 μl of medium. Then, a PHI-101 96-well plate (FIG. 4) and an olaparib 96-well plate (FIG. 5) were prepared separately, and 30 μl of the serially diluted PHI-101 or olaparib was dispensed into each well of the corresponding plate. 30 μl of medium was dispensed into each well not containing the substance.
(§3) Then, each well was incubated at 37° C. under 5% CO2 for 72 hours, and each experiment was performed in triplicate.
(§4) Next, using the CalcuSyn software and based on the Combination Index (CI) shown in Table 8, the CI for each ovarian cancer cell line depending on the treatment concentrations of PHI-101 and olaparib was calculated, and whether there was synergism between the substances was evaluated.

The test system of assay [6] is SK-OV3 ovarian cancer cell line. Described as above. The settings on record: Homo sapiens, SK-OV-3, Table 7, combination index experiment, 72 hours. The method, then:
as §1, §2, §3, §4

The subject of assay [7] is CAOV3 ovarian cancer cell line. The description is as above. Conditions: Homo sapiens, Caov-3, Table 7, combination index experiment, 72 hours. How it is done: as §1, §2, §3, §4
Assay [8] relates to TP53-mutant ovarian cancer cell lines. Nature of the assay: Selective inhibitory activity against TP53-mutant ovarian cancer cell lines. Conditions: TP53-mutant versus non-mutant ovarian cancer cell lines (Table 2). From the text: In order to evaluate the selective inhibitory activity of PHI-101, the characteristics of each cell line and the inhibitory activity of PHI-101 against ovarian cancer cell lines were investigated as shown in Table 2 below.

[9] abbreviates: Homo sapiens, Caov-3, agent alone, 72 hours.
Setting [10] is: Homo sapiens, OVCAR-3, agent alone, 72 hours.
The mark [11] stands for this setting: Homo sapiens, agent alone, 72 hours.
Setting [12] is: Homo sapiens, SK-OV-3, agent alone, 72 hours.

A word on the IC50: it is the midpoint of a concentration-inhibition curve. Take `N.N.[Cl][Pt][Cl]` [Cisplatin, cisplatin]: the concentration for half-maximal inhibition (IC50) in assay [1] (agent alone, 72 hours) worked out at 3.5 µM; in assay [2] (agent alone, 72 hours), 4.4 µM; in assay [3] (agent alone, 72 hours) it was 8 µM; in assay [4] (agent alone, 72 hours), 12.3 µM.

For the compound `O=C(c1cc(Cc2n[nH]c(=O)c3ccccc23)ccc1F)N1CCN(C(=O)C2CC2)CC1` [Olaparib, olaparib], the concentration for half-maximal inhibition (IC50) in assay [1] (setting [9]) was 59.7 µM; in assay [5], 96.5 µM; in assay [6] it was 114 µM; in assay [7] it was 59.7 µM; in assay [2] (setting [10]), 96.5 µM; in assay [3] (setting [11]) it was 147 µM. The IC50 in assay [4] (setting [12]) turned out to be 114 µM.

For the compound `NC(=O)Nc1cc(C#Cc2cccc(F)c2)sc1C(=O)N[C@H]1CCCNC1` [PHI-101, (S)-5-((3-fluorophenyl)ethynyl)-N-(piperidin-3-yl)-3-ureido thiophene-2-carboxamide], the half-maximal inhibitory concentration (IC50) in assay [1] (Homo sapiens, Caov-3, Table 4, values used to establish treatment starting concentrations) was 0.523 µM; in assay [1] (setting [9]), 0.5 µM; in assay [5], 3.5 µM; in assay [6] it was 4.39 µM; in assay [7] it was 0.873 µM; in assay [2] (Homo sapiens, OVCAR-3, Table 4, values used to establish treatment starting concentrations), 2.76 µM. Besides, the half-maximal inhibitory concentration (IC50) came out at 2.7 µM in assay [2] (setting [10]); 3.64 µM in assay [3] (Homo sapiens, Table 4, values used to establish treatment starting concentrations); 3.6 µM in assay [3] (setting [11]); 5.6 µM in assay [4] (Homo sapiens, SK-OV-3, Table 4, values used to establish treatment starting concentrations); 5.6 µM in assay [4] (setting [12]). Besides, the selective inhibitory activity entry in assay [8] is listed as “better inhibitory activity against the TP53-mutant ovarian cancer cell lines”.

For `CC(=O)O[C@H]1C(=O)[C@@]2(C)[C@H]([C@H](OC(=O)c3ccccc3)[C@]3(O)C[C@H](OC(=O)[C@H](O)[C@@H](NC(=O)c4ccccc4)c4ccccc4)C(C)=C1C3(C)C)[C@]1(OC(C)=O)CO[C@@H]1C[C@@H]2O` [Paclitaxel, paclitaxel], the half-maximal inhibitory concentration (IC50) turned out to be 3.6 µM in assay [1] (setting [9]), 5.7 µM in assay [2] (setting [10]), 29.8 µM in assay [3] (setting [11]) and 114 µM in assay [4] (setting [12]).

`COc1cccc(OCCCN)c1-c1cc(Nc2cnc(C#N)cn2)n[nH]1` [Prexasertib, prexasertib] showed an IC50 in assay [2] (setting [10]) of 6.3 µM.

For `CC[C@@]1(O)C(=O)OCc2c1cc1n(c2=O)Cc2cc3c(CN(C)C)c(O)ccc3nc2-1` [Topotecan, topotecan], the half-maximal inhibitory concentration (IC50) in assay [1] (setting [9]) stood at 3.9 µM; in assay [2] (setting [10]), 8.3 µM; in assay [3] (setting [11]) it was 14.4 µM; in assay [4] (setting [12]) it was 3.7 µM.
